What was measured:
fMet-Leu-Phe receptor = biological target: T1, fMet-Leu-Phe receptor (Homo sapiens, UniProt P21462); assay: Displacement of [3H]-fMLP from FPR in human neutrophils
T1 sequence (P21462 whole entry): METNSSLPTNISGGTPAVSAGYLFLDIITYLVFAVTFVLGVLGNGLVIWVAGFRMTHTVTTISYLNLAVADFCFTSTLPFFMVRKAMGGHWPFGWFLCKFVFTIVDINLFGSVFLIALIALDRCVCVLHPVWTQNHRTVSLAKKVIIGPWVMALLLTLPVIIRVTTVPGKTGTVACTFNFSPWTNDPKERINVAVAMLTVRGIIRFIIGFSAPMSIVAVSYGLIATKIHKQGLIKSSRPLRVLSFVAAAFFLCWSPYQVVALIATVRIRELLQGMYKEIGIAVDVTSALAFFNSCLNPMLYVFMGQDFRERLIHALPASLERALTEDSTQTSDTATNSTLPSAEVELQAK

[1] = Inhibition of fMLP-OMe-induced chemotaxis in human neutrophils; assay type: functional

SMILES	Ki (fMet-Leu-Phe receptor) [nM]	IC50 [1] [nM]
O=C(c1cnn2c1NC(c1ccccc1)C2)N1CCOCC1 (centres undefined)	> 10000	300
O=C(c1cnn2c1NC(c1ccccc1)C2)N1CCCC1 (centres undefined)	> 10000	9000
O=C(c1cnn2c1NC(c1ccccc1)C2)N1CCCCCC1 (centres undefined)	> 10000	1.01
NC(=O)c1cnn2c1NC(c1ccccc1)C2 (centres undefined)	> 10000	3.67
c1ccc(C2Cn3nccc3N2)cc1 (centres undefined)	> 10000	29
O=C(c1cnn2c1NC(c1ccccc1)C2)N1CCN(Cc2ccccc2)CC1 (centres undefined)	> 10000	27
CCOC(=O)c1cnn2c1NC(c1ccccc1)C2 (centres undefined)	> 10000	2400
O=C(NC1CC1)c1cnn2c1NC(c1ccccc1)C2 (centres undefined)	> 10000	0.48

Other lines, results leading:

Ki (fMet-Leu-Phe receptor) [nM]	IC50 [1] [nM]	SMILES
> 10000	7.52	CC(C)(C)NC(=O)c1cnn2c1NC(c1ccccc1)C2 (centres undefined)
> 10000	10000	O=C(NCc1ccccc1)c1cnn2c1NC(c1ccccc1)C2 (centres undefined)
> 10000	1.16	O=C(O)c1cnn2c1NC(c1ccccc1)C2 (centres undefined)
> 10000	1.48	O=C(c1cnn2c1NC(c1ccccc1)C2)N1CCCCC1 (centres undefined)

— ChEMBL document CHEMBL1145358, “2-Phenyl-2,3-dihydro-1H-imidazo[1,2-b]pyrazole derivatives: new potent inhibitors of fMLP-induced neutrophil chemotaxis” (Bioorg Med Chem Lett, 2007)
